This is an account of results in PMC9783868, “Indoline-5-Sulfonamides: A Role of the Core in Inhibition of Cancer-Related Carbonic Anhydrases, Antiproliferative Activity and Circumventing of Multidrug Resistance” (Pharmaceuticals, 2022).

Assay [1] has as its target T1, hCA XII (Homo sapiens, UniProt O43570).
T1 construct: made in house
Kind of assay: CA inhibition, stopped-flow CO2 hydration assay. The format is biochemical. To be noted: stopped-flow technique; mean from three assays. On the procedure: (§1) The CO2 hydration activity of the four hCA isoforms was monitored using an Applied Photophysics stopped-flow instrument. Phenol red (at a concentration of 0.2 mM) was used as an indicator, working at the absorbance maximum of 557 nm, with 10 mM HEPES (pH 7.4) as a buffer, and 20 mM NaClO4 (for maintaining constant the ionic strength), following the initial rates of the CA-catalyzed CO2 hydration reaction for a period of 10–100 s. To determine the kinetic parameters by Lineweaver-Burk plots and the inhibition constants, a concentration of CO2 between 1.7 to 17 mM was used. At least six measurements of the original 5–10% reaction were used to assess the initial velocity for each inhibitor. The uncatalyzed rates were determined and detracted from the total observed rates. Stock inhibitor solutions (10–100 mM) were prepared in distilled-deionized water, and dilutions up to 0.1 nM were done with the buffer test. […] The inhibition constants were obtained by non-linear least-squares methods using PRISM 6 and the Cheng-Prusoff equation, as reported earlier, and represent the mean from at least three different determinations.

In assay [2] the target is T2, hCA I (Homo sapiens, UniProt P00915).
T2 construct: made in house
Kind of assay: CA inhibition, stopped-flow CO2 hydration assay. The format is biochemical. The following applies: stopped-flow technique; mean from three assays. On the procedure: as §1

Assay [3] addresses T3, hCA IX (Homo sapiens, UniProt Q16790).
T3 construct: made in house
Kind of assay: CA inhibition, stopped-flow CO2 hydration assay. The class given is biochemical. Here is the method:
as §1

Assay [4] deals with T4, hCA II (Homo sapiens, UniProt P00918).
T4 construct: made in house
Kind of assay: CA inhibition, stopped-flow CO2 hydration assay. The class given is biochemical. The following applies: stopped-flow technique; mean from three assays. Here is the method: as §1

The test system of assay [5] is CA IX. Kind of assay: Immunoblotting of hypoxia-induced protein expression in A431 cells. The following applies: hypoxia 24 h. The class given is cell-based, human. On the procedure: (§2) We wondered whether compound 4f affected CA IX expression or whether its activity was limited to inhibiting the enzyme activity reported above (Table 1). To induce CA IX expression, cells were placed in hypoxia for 24 h, and then protein expression was analyzed by immunoblotting. Because the data on the expression of hypoxia-related proteins in the literature are highly inconsistent, we introduced additional controls. Antibodies to hypoxia-regulated and “non-hypoxic” proteins were used. The expression of kinase Akt, which is not regulated directly by hypoxia/HIF-1α, was not altered under hypoxia conditions (Figure 5F). […] Thus, lead compound 4f not only blocks the enzyme activity of CA IX, but also causes partial inhibition of hypoxia-induced CA IX expression in skin cancer cells.
(§3) A431 cells were seeded on 100 mm dishes (Corning, Corning, NY, USA), and after 24 h growth, the compound 4f was added to a fresh medium. To prepare cell extracts, A431 cells were twice washed in phosphate buffer and incubated for 10 min on ice in the modified lysis buffer containing 50 mM Tris-HCl, pH 7.5, 0.5% Igepal CA-630, 150 mM NaCl, 1 mM EDTA, 1 mM DTT, 1 mM PMSF, 0.1 mM sodium orthovanadate and aprotinin, leupeptin and pepstatin (1 µg/mL each) as described earlier in the work. The protein content was determined by the Bradford method.
(§4) A431 cell lysates were separated in 10% SDS-PAGE under reducing conditions, transferred to a nitrocellulose membrane (GE HealthCare, Chicago, IL, USA), and processed according to a standard protocol. Akt, GLUT1, PD-L1, and CA IX antibodies were obtained from Cell Signaling Technology (Danvers, MA, USA); the antibodies against GAPDH (Cell Signaling Technology) were added to standardize loading. Goat anti-rabbit IgGs (Jackson ImmunoResearch, West Grove, PA, USA) conjugated to horseradish peroxidase were used as secondary antibodies. Signals were detected using the ECL reagent as described in Mruk and Cheng’s protocol and an ImageQuant LAS4000 system (GE HealthCare).
On the technique in general: In western blotting, separated proteins are transferred to a membrane and probed.

Assay [6] concerns GLUT1. Described as above. The format is cell-based, human. The following applies: hypoxia 24 h. Here is the method: as §2, §3, §4
Assay [7] relates to PD-L1. Described as above. To be noted: hypoxia 24 h. The format is cell-based, human. On the procedure:
as §2, §3, §4

T2 sequence (P00915 whole entry): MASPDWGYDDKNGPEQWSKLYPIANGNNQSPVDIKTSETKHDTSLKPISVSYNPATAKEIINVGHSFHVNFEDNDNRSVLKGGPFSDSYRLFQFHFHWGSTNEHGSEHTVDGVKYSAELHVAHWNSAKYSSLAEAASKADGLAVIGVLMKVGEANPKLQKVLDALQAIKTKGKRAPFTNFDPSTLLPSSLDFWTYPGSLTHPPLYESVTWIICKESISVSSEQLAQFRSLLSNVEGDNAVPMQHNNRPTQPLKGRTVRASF
T1 sequence (O43570 25-354): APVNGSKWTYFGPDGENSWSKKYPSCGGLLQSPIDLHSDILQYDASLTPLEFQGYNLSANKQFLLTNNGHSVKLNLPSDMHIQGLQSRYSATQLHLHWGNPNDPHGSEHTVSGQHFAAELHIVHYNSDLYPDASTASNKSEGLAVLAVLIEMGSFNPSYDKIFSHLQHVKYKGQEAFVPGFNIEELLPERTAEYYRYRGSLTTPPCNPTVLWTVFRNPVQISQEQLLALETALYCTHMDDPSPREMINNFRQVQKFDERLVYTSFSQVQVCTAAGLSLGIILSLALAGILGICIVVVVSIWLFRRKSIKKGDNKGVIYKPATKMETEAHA

One may read the Ki as the dissociation constant of the complex between target and ligand, obtained from inhibition or displacement. High values mean a looser hold on the target, low ones a stronger hold on the target. As for `NS(=O)(=O)c1ccc2c(c1)CCN2C(=O)c1cccc(Cl)c1` [Compound 4f, 1-(3-Chlorobenzoyl)indoline-5-sulfonamide], the Ki is 112 nM in assay [1]; 304 nM in assay [2]; 141 nM in assay [3] (stopped-flow technique, mean from three assays); 31.3 nM in assay [4]. Further, in assay [3] (in vitro KI, 4f vs 4e), the “fold higher activity against CA IX compared with 4e” value is on record as ~10 fold. For the same compound, in assay [5], the “CA IX expression in A431 cells” value was “moderate decrease”. In addition, in assay [6], the “GLUT1 expression in A431 cells” value is listed as “did not change”. Moreover, in assay [7], the “PD-L1 expression in A431 cells” value is on record as “did not change”.
